Reference: patent US8790891B2, “Microfluidic cell motility assay” (The General Hospital Corporation, priority 2009, dated 2014)
“Also recorded” adds a separate entry of the source.

System: MDA-MB231 breast cancer cells
Assay: Microcapillary motility assay (MMA) with agents that alter microtubule dynamics
Format: cell-based, human
Settings: for kymograph analysis of single cell motility: 18 hour period, FIG. 13; for concentration at which persistent motility is inhibited: microcapillaries, no chemical gradient; for effect on persistent migration behavior: different concentrations, summary of Example 11; for effect on speed of cancer cell migration through the microcapillary array: result in words
Text: Referring now to FIGS. 7A-7B, a microcapillary motility assay (MMA) device 700 including microfluidic devices 750 were manufactured by casting polydimethyl siloxane (PDMS, Dow Corning, Midland. Mich.) on a microstructured mold. The microstructured mold was fabricated using standard photolithographic technologies. A silicon wafer was coated with a 10 μm thin layer of photoresist (SU8, Microchem, Newton, Mass.) and processed following the standard protocol as recommended by the manufacturer. A second, thicker layer of approximately 50 μm was then photopatterned on the same wafer and aligned with respect to the first layer in order to define the connections between the capillaries and the wells. The mold was placed in a Petri-dish and covered with PDMS freshly prepared according to the manufacturer's instructions. After baking for 8 hours at 65° C., the cast PDMS was removed from the mold, one microwell for each device was punched using a 2 mm puncher, and each device was cut using a 5 mm puncher. After exposure for 20 seconds to oxygen plasma in a plasma asher (March, Concord, Calif.), the devices were individually bonded on the coverslips at the bottom of 24-well plates (Mattek, Ashland, Mass.).
After bonding, and while the PDMS was still hydrophilic, 2 μL of a solution of 2 μg/mL collagen IV was added inside the center microwell of each device. The strong capillary force ensured the collagen solution filled the capillaries. Excess collagen was later washed away by adding 5 μL of phosphate buffer (PBS) in only one well of the devices. Alternatively, 2 μL of Matrigel (BD Biosciences, San Jose, Calif.) was added in one well at 4° C. and the entire plate was heated to 37° C. for 5 minutes.
Before performing each migration assay, cells growing in cell culture flasks were washed with PBS, lifted from the surface using trypsin or 10 mM calcium chelator solution in buffer (EDTA, Sigma Aldrich, St. Louis, Mo.), suspended into 10 mL of media, centrifuged, and re-suspended into media at 10^6 cells/mL. Cells were then seeded in one well of each device, by directly pipetting 3-4 μL of the cell suspension in each well. After loading the cells, 3 mL of corresponding media were added to each well of the multi-well plate, completely covering the devices.
To image the moving cells, the multi-well plate was placed on the motorized stage of a Zeiss Axiovert microscope fitted with an environmental chamber. The environment was set at 37.7° C. and 5% CO2. Cells were imaged using 10× objective and phase contrast. Three separate images from each array were acquired every 6 minutes for 24-48 hours. Because cell motility is restricted only along the capillary, in one linear dimension, the motility is easy to image and easy to quantify for extended periods of times. We have tracked cells for more than 72 hours.
To quantify the migration of individual cells, images were analyzed using the manual tracking function in the Image J software. The middle of cells was tracked through the series of frames and only cells entering the microcapillaries were tracked. At least 50 cells migrating through the capillaries were tracked for each condition. Average velocity over 12 hours was calculated from temporary velocities over each 6 minutes interval and presented as mean and standard error of the mean.
To probe into the mechanisms responsible for persistent cell migration, we exposed the cells to drugs that alter microtubule dynamics while performing the MMA described in Example 2 using the microfluidic device shown in FIG. 2.

[1] = MDA-MB231 breast cancer line, FIG. 11

SMILES | kymograph analysis of single cell motility (taxol 12 nM) | concentration at which persistent motility is inhibited [1] | speed of the fastest cells under drug (Taxol between 1 and 10 μM, some cells only) [μm/hour] | effect on persistent migration behavior | effect on speed of cancer cell migration through the microcapillary array | kymograph analysis of single cell motility (nocodazole 0.05 ng/mL) | concentration at which migration of the fastest moving cells is inhibited (MDA-MB231 breast cancer line, FIG. 11, only Nocodazole) | concentration that significantly altered the speed of migration for all cells in the population (all cells in the population) [µM] | concentration of significant decrease in motility (dose response) (migration through microcapillary array) [nM]
CC(=O)O[C@H]1C(=O)[C@@]2(C)[C@H]([C@H](OC(=O)c3ccccc3)[C@]3(O)C[C@H](OC(=O)[C@H](O)[C@@H](NC(=O)c4ccccc4)c4ccccc4)C(C)=C1C3(C)C)[C@]1(OC(C)=O)CO[C@@H]1C[C@@H]2O [Taxol, Paclitaxel] | persistent movement along the microcapillary; also recorded: reverses direction at the end of the microcapillary | above 100 ng/mL | > 100 | does not alter the persistent migration | significantly decrease the speed |  |  |  | 
COC(=O)Nc1nc2ccc(C(=O)c3cccs3)cc2[nH]1 [Nocodazole] |  | above 0.5 ng/mL |  | alteration of the persistent migration behavior | significantly decrease the speed | frequent changes of direction and less persistence | above 1 ng/mL | > 1 | < 100
